From PubChem BioAssay AID2060889 (Molecular Pharmacology Branch, DTP, NCI, 2025)

System: LG0567-F671-PDC complex spheroids viability
Test: Anticancer human tumor LG0567-F671-PDC patient-derived lung adenocarcinoma cell line growth inhibition [RAS]
Conditions: for IC50: curve of first compound; for viability, T/C: stronger effect = lower value
Procedure, shortened: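 Multi-cell-type spheroids: tumor cells plus HUVEC endothelial cells and mesenchymal stem cells. RAS-pathway inhibitors were combined with targeted agents, each dosed in half-log steps down from clinical Cmax, or from 10 microM when Cmax was unknown.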
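Also: spheroids exposed to compound for seven days before readout.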
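For IC50 in this document: luminescence signal used as a proxy for viable cells.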

CCN1CCN(Cc2ccc(Nc3ncc(F)c(-c4cc(F)c5nc(C)n(C(C)C)c5c4)n3)nc2)CC1 + CCn1c(-c2cc(N3CCN(C)CC3)cnc2C(C)OC)c2c3cc(ccc31)-c1csc(n1)CC(NC(=O)C1CC1C)C(=O)N1CCCC(N1)C(=O)OCC(C)(C)C2
IC50 (second compound 0.000949 µM): < 3.16 nM
IC50 (second compound 0.003 µM): < 3.16 nM
IC50 (second compound 0.00949 µM): < 3.16 nM
IC50 (second compound 0.03 µM): < 3.16 nM
IC50 (second compound 0.0949 µM): < 3.16 nM
IC50 (second compound 0.3 µM): < 3.16 nM
viability, T/C (second compound 0.000949 µM, first compound 0.00316 µM): 27.4%
viability, T/C (second compound 0.000949 µM, first compound 0.01 µM): 24.3%
viability, T/C (second compound 0.000949 µM, first compound 0.0316 µM): 23.6%
viability, T/C (second compound 0.000949 µM, first compound 0.1 µM): 23.9%
viability, T/C (second compound 0.000949 µM, first compound 0.316 µM): 27.4%
viability, T/C (second compound 0.000949 µM, first compound 1 µM): 30.4%
viability, T/C (second compound 0.003 µM, first compound 0.00316 µM): 11.5%
viability, T/C (second compound 0.003 µM, first compound 0.01 µM): 11.9%
viability, T/C (second compound 0.003 µM, first compound 0.0316 µM): 10.8%
viability, T/C (second compound 0.003 µM, first compound 0.1 µM): 11.4%
viability, T/C (second compound 0.003 µM, first compound 0.316 µM): 14.7%
viability, T/C (second compound 0.003 µM, first compound 1 µM): 21.5%
viability, T/C (second compound 0.00949 µM, first compound 0.00316 µM): 6.37%
viability, T/C (second compound 0.00949 µM, first compound 0.01 µM): 6.88%
viability, T/C (second compound 0.00949 µM, first compound 0.0316 µM): 6.24%
viability, T/C (second compound 0.00949 µM, first compound 0.1 µM): 6.47%
viability, T/C (second compound 0.00949 µM, first compound 0.316 µM): 7.63%
viability, T/C (second compound 0.00949 µM, first compound 1 µM): 14.4%
viability, T/C (second compound 0.03 µM, first compound 0.00316 µM): 4.36%
viability, T/C (second compound 0.03 µM, first compound 0.01 µM): 4.91%
viability, T/C (second compound 0.03 µM, first compound 0.0316 µM): 4.15%
viability, T/C (second compound 0.03 µM, first compound 0.1 µM): 4.09%
viability, T/C (second compound 0.03 µM, first compound 0.316 µM): 5.04%
viability, T/C (second compound 0.03 µM, first compound 1 µM): 8.84%
viability, T/C (second compound 0.0949 µM, first compound 0.00316 µM): 3.5%
viability, T/C (second compound 0.0949 µM, first compound 0.01 µM): 3.29%
viability, T/C (second compound 0.0949 µM, first compound 0.0316 µM): 2.92%
viability, T/C (second compound 0.0949 µM, first compound 0.1 µM): 2.88%
viability, T/C (second compound 0.0949 µM, first compound 0.316 µM): 3.8%
viability, T/C (second compound 0.0949 µM, first compound 1 µM): 6%
viability, T/C (second compound 0.3 µM, first compound 0.00316 µM): 3.07%
viability, T/C (second compound 0.3 µM, first compound 0.01 µM): 2.94%
viability, T/C (second compound 0.3 µM, first compound 0.0316 µM): 2.53%
viability, T/C (second compound 0.3 µM, first compound 0.1 µM): 2.95%
viability, T/C (second compound 0.3 µM, first compound 0.316 µM): 3.25%
viability, T/C (second compound 0.3 µM, first compound 1 µM): 4.38%

Nc1ccn(C2OC(CO)C(O)C2(F)F)c(=O)n1 (centres undefined) + C=CC(=O)N1CCN(c2nc(OCC3CCCN3C)nc3c(F)c(-c4nc(N)cc(C)c4C(F)(F)F)c(Cl)cc23)C(C)C1
IC50 (second compound 0.00316 µM): < 3.16 nM
IC50 (second compound 0.01 µM): < 3.16 nM
IC50 (second compound 0.0316 µM): < 3.16 nM
IC50 (second compound 0.1 µM): < 3.16 nM
IC50 (second compound 0.316 µM): < 3.16 nM
IC50 (second compound 1 µM): < 3.16 nM
viability, T/C (second compound 0.00316 µM, first compound 0.00316 µM): 18.4%
viability, T/C (second compound 0.00316 µM, first compound 0.01 µM): 16.4%
viability, T/C (second compound 0.00316 µM, first compound 0.0316 µM): 14.8%
viability, T/C (second compound 0.00316 µM, first compound 0.1 µM): 16.6%
viability, T/C (second compound 0.00316 µM, first compound 0.316 µM): 15.9%
viability, T/C (second compound 0.00316 µM, first compound 1 µM): 15.8%
viability, T/C (second compound 0.01 µM, first compound 0.00316 µM): 16.5%
viability, T/C (second compound 0.01 µM, first compound 0.01 µM): 13.8%
viability, T/C (second compound 0.01 µM, first compound 0.0316 µM): 13.9%
viability, T/C (second compound 0.01 µM, first compound 0.1 µM): 14.3%
viability, T/C (second compound 0.01 µM, first compound 0.316 µM): 14.3%
viability, T/C (second compound 0.01 µM, first compound 1 µM): 14.9%
viability, T/C (second compound 0.0316 µM, first compound 0.00316 µM): 15%
viability, T/C (second compound 0.0316 µM, first compound 0.01 µM): 14.2%
viability, T/C (second compound 0.0316 µM, first compound 0.0316 µM): 12.5%
viability, T/C (second compound 0.0316 µM, first compound 0.1 µM): 14.5%
viability, T/C (second compound 0.0316 µM, first compound 0.316 µM): 15.3%
viability, T/C (second compound 0.0316 µM, first compound 1 µM): 12.8%
viability, T/C (second compound 0.1 µM, first compound 0.00316 µM): 14.2%
viability, T/C (second compound 0.1 µM, first compound 0.01 µM): 13.2%
viability, T/C (second compound 0.1 µM, first compound 0.0316 µM): 14.2%
viability, T/C (second compound 0.1 µM, first compound 0.1 µM): 11.5%
viability, T/C (second compound 0.1 µM, first compound 0.316 µM): 12.9%
viability, T/C (second compound 0.1 µM, first compound 1 µM): 14%
viability, T/C (second compound 0.316 µM, first compound 0.00316 µM): 13.4%
viability, T/C (second compound 0.316 µM, first compound 0.01 µM): 13.8%
viability, T/C (second compound 0.316 µM, first compound 0.0316 µM): 11.6%
viability, T/C (second compound 0.316 µM, first compound 0.1 µM): 12.6%
viability, T/C (second compound 0.316 µM, first compound 0.316 µM): 14.7%
viability, T/C (second compound 0.316 µM, first compound 1 µM): 11.6%
viability, T/C (second compound 1 µM, first compound 0.00316 µM): 14.1%
viability, T/C (second compound 1 µM, first compound 0.01 µM): 16.4%
viability, T/C (second compound 1 µM, first compound 0.0316 µM): 14.7%
viability, T/C (second compound 1 µM, first compound 0.1 µM): 13.7%
viability, T/C (second compound 1 µM, first compound 0.316 µM): 14.2%
viability, T/C (second compound 1 µM, first compound 1 µM): 14.3%
